Results published in patent publication US8895570B2, “Purine derivatives” (AstraZeneca AB, priority 2010, dated 2014).

What was measured:
CYP1A2 = target: T1, CYP1A2 (Homo sapiens, UniProt P05177); test: CYP inhibition; type: in vitro ADME; conditions: expressed in E. coli membranes, substrate phenacetin, LC-MS-MS; read-out: Mean pIC50 CYP1A2 (converted)
T1 construct: made in house; host or cells: E. coli (membranes)
T1 sequence (P05177 1-516): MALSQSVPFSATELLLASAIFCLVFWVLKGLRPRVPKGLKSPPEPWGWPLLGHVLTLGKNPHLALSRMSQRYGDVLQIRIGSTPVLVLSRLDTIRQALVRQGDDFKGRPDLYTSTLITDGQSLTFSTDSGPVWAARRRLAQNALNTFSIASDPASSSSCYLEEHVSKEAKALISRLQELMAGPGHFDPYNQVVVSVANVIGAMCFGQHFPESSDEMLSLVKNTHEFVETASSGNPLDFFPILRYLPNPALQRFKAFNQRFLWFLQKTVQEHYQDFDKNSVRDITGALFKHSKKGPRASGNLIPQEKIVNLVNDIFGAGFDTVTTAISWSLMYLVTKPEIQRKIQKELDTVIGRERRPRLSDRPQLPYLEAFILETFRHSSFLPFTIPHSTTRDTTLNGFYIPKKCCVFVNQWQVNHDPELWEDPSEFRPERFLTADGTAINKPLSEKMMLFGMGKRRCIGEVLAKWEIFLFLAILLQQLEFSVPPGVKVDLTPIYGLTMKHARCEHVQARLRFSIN
Method: (§1) The five major human hepatic Cytochrome P450 isoforms, 1A2, 2C9, 2C19, 2D6 and 3A4 were heterologously expressed in E. coli membranes. Each of the five CYPs were incubated with a cocktail of specific substrates; phenacetin, diclofenac, 5-mephenyloin, bufuralol and midazolam, which are predominantly metabolised by CYP 1A2, 2C9, 2C19, 2D6 and 3A4 respectively plus the test compound.
(§2) The substrates were incubated, at concentrations equivalent to their respective Km values, and LC-MS-MS (MRM mode) was used in order to follow the formation of their specific metabolites. The ability of the test compound to inhibit the CYP isoforms was determined by following any decrease in the amount of the specific metabolites formed at six different inhibitor concentrations.
(§3) The rates of reaction were calculated by measuring MS/MS area units and data analysis was performed by linearising the data using a pseudo Hill plot. The IC50 ie the concentration of the test compound that decreases the amount of metabolite formed by 50% was determined.

CYP2D6 = target: T2, CYP2D6 (Homo sapiens, UniProt P10635); test: CYP inhibition; type: in vitro ADME; conditions: expressed in E. coli membranes, substrate bufuralol, LC-MS-MS; read-out: Mean pIC50 CYP2D6 (converted)
T2 construct: made in house; host or cells: E. coli (membranes)
Method: as §1, §2, §3

CYP3A4 = target: T3, CYP3A4 (Homo sapiens, UniProt P08684); test: CYP inhibition; type: in vitro ADME; conditions: expressed in E. coli membranes, substrate midazolam, LC-MS-MS; read-out: Mean pIC50 CYP3A4 (converted)
T3 construct: made in house; host or cells: E. coli (membranes)
Method: as §1, §2, §3

CYP2C9 = target: T4, CYP2C9 (Homo sapiens, UniProt P11712); test: CYP inhibition; type: in vitro ADME; conditions: expressed in E. coli membranes, substrate diclofenac, LC-MS-MS; read-out: Mean pIC50 CYP2C9 (converted)
T4 construct: made in house; host or cells: E. coli (membranes)
Method: as §1, §2, §3

CYP2C19 = target: T5, CYP2C19 (Homo sapiens, UniProt P33261); test: CYP inhibition; type: in vitro ADME; conditions: expressed in E. coli membranes, substrate 5-mephenyloin, LC-MS-MS; read-out: Mean pIC50 CYP2C19 (converted)
T5 construct: made in house; host or cells: E. coli (membranes)
Method: as §1, §2, §3

human TLR7 = target: T6, human TLR7 (Homo sapiens, UniProt Q9NYK1); test: Human TLR7 assay (SEAP reporter in HEK293 cells); type: cell-based; conditions: HEK293 cells expressing recombinant human TLR7, overnight incubation at 37° C., 0.1% DMSO; read-out: mean pEC50 (SEAP induction) (converted)
T6 construct: expressed in transfected cells; host or cells: HEK293 stably expressing pNiFty2-SEAP reporter; TLR7 in pUNO vector
T6 sequence (Q9NYK1 27-1049): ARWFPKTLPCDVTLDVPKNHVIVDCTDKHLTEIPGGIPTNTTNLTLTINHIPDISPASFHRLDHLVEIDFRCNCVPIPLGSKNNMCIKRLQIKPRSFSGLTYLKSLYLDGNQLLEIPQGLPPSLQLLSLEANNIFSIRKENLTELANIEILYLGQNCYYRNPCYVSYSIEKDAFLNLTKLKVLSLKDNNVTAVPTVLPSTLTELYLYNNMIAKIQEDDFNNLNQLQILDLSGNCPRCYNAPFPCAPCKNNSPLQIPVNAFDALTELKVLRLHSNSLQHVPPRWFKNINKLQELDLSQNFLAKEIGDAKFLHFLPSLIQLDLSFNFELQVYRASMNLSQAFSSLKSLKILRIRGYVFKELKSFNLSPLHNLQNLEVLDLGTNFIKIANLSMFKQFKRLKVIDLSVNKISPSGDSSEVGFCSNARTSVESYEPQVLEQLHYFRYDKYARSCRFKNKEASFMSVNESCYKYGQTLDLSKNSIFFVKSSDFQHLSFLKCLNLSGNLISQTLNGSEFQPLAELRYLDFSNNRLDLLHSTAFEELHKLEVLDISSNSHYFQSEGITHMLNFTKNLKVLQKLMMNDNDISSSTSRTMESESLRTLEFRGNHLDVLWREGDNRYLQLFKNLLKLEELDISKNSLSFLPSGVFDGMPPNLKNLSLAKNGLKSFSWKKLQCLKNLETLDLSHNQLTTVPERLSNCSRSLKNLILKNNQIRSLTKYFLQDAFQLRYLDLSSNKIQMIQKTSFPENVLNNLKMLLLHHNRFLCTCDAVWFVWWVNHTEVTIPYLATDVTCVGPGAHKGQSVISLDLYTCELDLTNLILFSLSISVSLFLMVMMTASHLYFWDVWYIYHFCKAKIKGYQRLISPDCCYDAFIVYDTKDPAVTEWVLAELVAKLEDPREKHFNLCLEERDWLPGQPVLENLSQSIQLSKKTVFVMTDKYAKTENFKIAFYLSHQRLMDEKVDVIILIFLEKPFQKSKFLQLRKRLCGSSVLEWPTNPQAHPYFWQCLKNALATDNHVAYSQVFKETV
Text: Recombinant human TLR7 was stably expressed in a HEK293 cell line already stably expressing the pNiFty2-SEAP reporter plasmid; integration of the reporter gene was maintained by selection with the antibiotic zeocin. The most common variant sequence of human TLR7 (represented by the EMBL sequence AF240467) was cloned into the mammalian cell expression vector pUNO and transfected into this reporter cell-line. Transfectants with stable expression were selected using the antibiotic blasticidin. In this reporter cell-line, expression of secreted alkaline phosphatase (SEAP) is controlled by an NFkB/ELAM-1 composite promoter comprising five NFkB sites combined with the proximal ELAM-1 promoter. TLR signaling leads to the translocation of NFkB and activation of the promoter results in expression of the SEAP gene. TLR7-specific activation was assessed by determining the level of SEAP produced following overnight incubation of the cells at 37° C. with the standard compound in the presence of 0.1% (v/v) dimethylsulfoxide (DMSO). […] Human Skin Cytokine Production

[1] = Maximal solubility in phosphate citrate buffer pH 3.0; type: physicochemical
Human plasma stability = type: in vitro ADME; conditions: 37° C.
Method: To determine the half life of the test compound in human plasma, incubations were performed at 37° C. in a shaking water bath. Compound (5 μl of 100 μM stock in MeCN) was spiked into 0.495 mL plasma to give final incubation concentration of 1 μM. Aliquots (50 μl) were withdrawn at various time points (typically 0, 20 & 40 sec, 1, 2, 3, 5 & 10 mins) and quenched into MeCN ([…]) followed by analysis for parent compound by LC-MS-MS (MRM mode). The half life was calculated from the decline of test compound peak area over time. • Example 1 (Compound (I)) gave a half life of 0.6 minutes (n=1). • Comparative Example 1 gave a half life of 0.2 minutes (n=1).

[2] = tested on: interleukin-13 (IL-13) production in human skin biopsies; test: Human skin cytokine production (PHA-induced IL-13 in skin biopsies); type: cell-based; conditions: PHA-stimulated human skin biopsies, 24 hours
Method: Normal human skin biopsies were obtained, with informed consent, from healthy patients undergoing surgical cosmetic procedures. 3 mm full thickness skin biopsies were taken using a biopsy punch. A hole was cut in a Transwell filter (pore size 0.4 μm) using a punch and the skin biopsy inserted in the hole. The filter containing the biopsy was placed in the well of a 24-well culture plate containing 1.25 ml of culture medium (RPMI containing 1% heat-inactivated human serum) with the epidermis facing upwards at the liquid-air interface. Culture plates containing the biopsies were incubated at 37° C., in an atmosphere of 5% CO2 in air, for 24 hours. Biopsies were cultured in the absence or presence of phytohaemagglutinin (PHA) (1 mg/ml) added to the culture medium to induce a cytokine response in the tissue.

[3] = compound applied topically at 1/10 max. solubility
[4] = compound applied topically at max. solubility

T4 sequence (P11712 whole entry): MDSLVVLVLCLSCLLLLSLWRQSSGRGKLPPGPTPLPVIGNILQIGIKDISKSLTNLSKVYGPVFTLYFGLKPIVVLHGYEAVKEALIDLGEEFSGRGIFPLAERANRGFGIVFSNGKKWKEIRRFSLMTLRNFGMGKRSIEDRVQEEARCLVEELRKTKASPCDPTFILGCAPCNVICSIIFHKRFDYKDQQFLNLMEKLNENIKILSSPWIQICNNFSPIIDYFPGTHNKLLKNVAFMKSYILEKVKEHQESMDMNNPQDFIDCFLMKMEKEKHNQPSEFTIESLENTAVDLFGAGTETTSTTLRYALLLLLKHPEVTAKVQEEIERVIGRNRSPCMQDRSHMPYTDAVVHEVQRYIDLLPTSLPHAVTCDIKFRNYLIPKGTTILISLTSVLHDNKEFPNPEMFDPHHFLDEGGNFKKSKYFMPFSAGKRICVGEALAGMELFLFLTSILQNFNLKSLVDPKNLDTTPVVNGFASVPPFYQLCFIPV
T2 sequence (P10635 whole entry): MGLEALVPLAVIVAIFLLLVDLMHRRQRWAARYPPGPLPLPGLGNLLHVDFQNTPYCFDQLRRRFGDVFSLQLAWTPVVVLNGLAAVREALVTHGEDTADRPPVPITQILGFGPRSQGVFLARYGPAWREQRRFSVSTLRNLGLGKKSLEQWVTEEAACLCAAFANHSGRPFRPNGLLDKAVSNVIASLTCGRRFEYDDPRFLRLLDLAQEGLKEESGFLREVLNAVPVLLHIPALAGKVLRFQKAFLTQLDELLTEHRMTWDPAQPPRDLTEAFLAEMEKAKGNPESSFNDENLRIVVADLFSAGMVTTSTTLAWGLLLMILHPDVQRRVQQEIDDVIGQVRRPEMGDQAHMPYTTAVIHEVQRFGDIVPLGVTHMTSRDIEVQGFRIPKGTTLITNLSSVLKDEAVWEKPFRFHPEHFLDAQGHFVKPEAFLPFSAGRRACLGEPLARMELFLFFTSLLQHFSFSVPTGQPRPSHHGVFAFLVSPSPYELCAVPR
T3 sequence (P08684 whole entry): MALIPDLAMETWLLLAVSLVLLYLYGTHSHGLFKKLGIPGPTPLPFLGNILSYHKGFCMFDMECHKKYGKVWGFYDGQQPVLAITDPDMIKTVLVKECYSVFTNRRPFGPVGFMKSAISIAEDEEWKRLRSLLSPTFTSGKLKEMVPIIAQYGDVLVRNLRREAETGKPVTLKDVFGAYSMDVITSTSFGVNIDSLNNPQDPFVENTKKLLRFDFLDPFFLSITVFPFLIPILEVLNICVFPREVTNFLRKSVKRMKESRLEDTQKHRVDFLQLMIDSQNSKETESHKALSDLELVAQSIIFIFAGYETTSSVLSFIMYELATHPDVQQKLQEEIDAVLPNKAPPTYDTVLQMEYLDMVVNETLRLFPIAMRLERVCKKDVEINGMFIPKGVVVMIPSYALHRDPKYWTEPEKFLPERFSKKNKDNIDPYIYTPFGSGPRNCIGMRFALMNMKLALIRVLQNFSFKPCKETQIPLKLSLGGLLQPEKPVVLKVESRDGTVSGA
T5 sequence (P33261 whole entry): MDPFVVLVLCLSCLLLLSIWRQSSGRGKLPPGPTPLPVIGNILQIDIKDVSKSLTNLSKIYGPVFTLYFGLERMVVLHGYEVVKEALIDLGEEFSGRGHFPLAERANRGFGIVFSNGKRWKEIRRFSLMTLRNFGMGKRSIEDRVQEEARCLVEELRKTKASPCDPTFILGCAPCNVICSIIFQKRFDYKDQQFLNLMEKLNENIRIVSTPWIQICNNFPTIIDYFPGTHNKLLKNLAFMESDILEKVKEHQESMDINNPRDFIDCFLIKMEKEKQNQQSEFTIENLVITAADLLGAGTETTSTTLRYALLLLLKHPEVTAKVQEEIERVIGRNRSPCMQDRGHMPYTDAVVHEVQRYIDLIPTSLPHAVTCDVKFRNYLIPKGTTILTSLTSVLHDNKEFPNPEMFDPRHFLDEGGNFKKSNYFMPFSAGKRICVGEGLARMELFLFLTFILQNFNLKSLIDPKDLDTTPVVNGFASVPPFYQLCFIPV

Row | Compound | IC50 (CYP1A2) | IC50 (CYP2D6) | IC50 (CYP3A4) | IC50 (CYP2C9) | IC50 (CYP2C19) | EC50 (human TLR7) | maximal solubility in phosphate citrate buffer pH 3.0 [1] | half-life at 1 μM (Human plasma stability) | % Inhibition of response [2, 3] | IL-13 (pg/ml) Mean ± SEM [2, 3] | % Inhibition of response [2, 4] | IL-13 (pg/ml) Mean ± SEM [2, 4]
1 | CCCCOc1nc(N)c2[nH]c(=O)n(CCCN(CCCN3CCCCC3)Cc3ccc(CC(=O)OC)cc3)c2n1 [Example 1, Methyl [4-({[3-(6-amino-2-butoxy-8-oxo-7,8-dihydro-9H-purin-9-yl)propyl][3-(piperidin-1-yl)propyl]amino}methyl)phenyl]acetate] | > 3.02 µM | > 3.02 µM | 0.468 µM | > 3.02 µM | > 3.02 µM | 0.251 µM | 4.1-4.4 % w/w | 36 s | 55% | 4.8 ± 0.8 pg/mL | 87% | 1.9 ± 0.8 pg/mL
2 | CCCCOc1nc(N)c2[nH]c(=O)n(CCCN(CCCN3CCCCC3)Cc3cccc(CC(=O)OC)c3)c2n1 [Comparative Example 1, Methyl [3-({[3-(6-amino-2-butoxy-8-oxo-7,8-dihydro-9H-purin-9-yl)propyl][3-(piperidin-1-yl)propyl]amino}methyl)phenyl]acetate, reference compound] | > 30.2 µM | 13.5 µM | 0.0132 µM | > 29.5 µM | > 30.2 µM | 0.158 µM |  | 12 s |  |  |  | 
